Measurements reported in ChEMBL document CHEMBL4184182, “Studies on interactions of carbazole derivatives with DNA, cell image, and cytotoxicity” (Bioorg Med Chem, 2018).
Blank lines part the entries; values can stand above or below the compound they belong to. Active and inactive are the calls of the source. The calls are words filed in the database; no cut-off is given here.

Assays:
dsDNA [1] = experiment: Binding affinity to 26-mer duplex DNA (unknown origin) assessed as hyperchromicity at 10 uM after 5 mins by UV-Visible absorbance titration method; type: nucleic-acid assay
Quadruplex DNA [2] = experiment: Binding affinity to c-Kit G-quadruplex DNA (unknown origin) assessed as hyperchromicity at 10 uM after 5 mins by UV-Visible absorbance titration method; type: nucleic-acid assay
Quadruplex DNA [3] = experiment: Binding affinity to Bcl2 G-quadruplex DNA (unknown origin) assessed as hyperchromicity at 10 uM after 5 mins by UV-Visible absorbance titration method; type: nucleic-acid assay
Quadruplex DNA [4] = experiment: Binding affinity to human telomeric G-quadruplex DNA assessed as hyperchromicity at 10 uM after 5 mins in presence of potassium ion by UV-Visible absorbance titration method; type: nucleic-acid assay
Quadruplex DNA [5] = experiment: Binding affinity to Bcl2 G-quadruplex DNA (unknown origin) assessed as red shift at 10 uM after 5 mins by UV-Visible absorbance titration method; type: nucleic-acid assay
Quadruplex DNA [6] = experiment: Binding affinity to c-Myc G-quadruplex DNA (unknown origin) assessed as red shift at 10 uM after 5 mins by UV-Visible absorbance titration method; type: nucleic-acid assay
Quadruplex DNA [7] = experiment: Binding affinity to human telomeric G-quadruplex DNA assessed as red shift at 10 uM after 5 mins in presence of potassium ion by UV-Visible absorbance titration method; type: nucleic-acid assay
Quadruplex DNA [8] = experiment: Binding affinity to human telomeric G-quadruplex DNA assessed as red shift at 10 uM after 5 mins in presence of sodium ion by UV-Visible absorbance titration method; type: nucleic-acid assay
Calf thymus DNA [9] = experiment: Binding affinity to calf thymus DNA assessed as absorption maximum at 5 uM after 5 mins by fluorescence titration method (reference value: 453 nanometer); type: nucleic-acid assay; conditions: Bos taurus
dsDNA [10] = experiment: Binding affinity to 26-mer duplex DNA (unknown origin) assessed as absorption maximum at 5 uM after 5 mins by fluorescence titration method (reference value: 453 nanometer); type: nucleic-acid assay
Quadruplex DNA [11] = experiment: Binding affinity to c-Kit G-quadruplex DNA (unknown origin) assessed as absorption maximum at 5 uM after 5 mins by fluorescence titration method (reference value: 453 nanometer); type: nucleic-acid assay
Quadruplex DNA [12] = experiment: Binding affinity to Bcl2 G-quadruplex DNA (unknown origin) assessed as absorption maximum at 5 uM after 5 mins by fluorescence titration method (reference value: 453 nanometer); type: nucleic-acid assay
Quadruplex DNA [13] = experiment: Binding affinity to human telomeric G-quadruplex DNA assessed as absorption maximum at 5 uM after 5 mins in presence of sodium ion by fluorescence titration method (reference value: 453 nanometer); type: nucleic-acid assay
Quadruplex DNA [14] = experiment: Binding affinity to c-Myc G-quadruplex DNA (unknown origin) assessed as emission maximum at 5 uM after 5 mins by fluorescence titration method (reference value: 584 nanometer); type: nucleic-acid assay
Quadruplex DNA [15] = experiment: Binding affinity to human telomeric G-quadruplex DNA assessed as emission maximum at 5 uM after 5 mins in presence of potassium ion by fluorescence titration method (reference value: 584 nanometer); type: nucleic-acid assay
Quadruplex DNA [16] = experiment: Binding affinity to human telomeric G-quadruplex DNA assessed as emission maximum at 5 uM after 5 mins in presence of sodium ion by fluorescence titration method (reference value: 584 nanometer); type: nucleic-acid assay
[17] = Drug uptake in DNase-1 treated human HepG2 cell nucleus at 3 uM after 30 mins by H33258.staining based confocal microscopic method; type: ADME, subcellular; conditions: hepg2, 0.5 h
[18] = Drug uptake in RNase-A treated human HepG2 cell nucleus at 3 uM after 30 mins by H33258.staining based confocal microscopic method; type: ADME, subcellular; conditions: hepg2, 0.5 h
Calf thymus DNA [19] = experiment: Binding affinity to calf thymus DNA assessed as hyperchromicity at 15 uM after 5 mins by UV-Visible absorbance titration method; type: nucleic-acid assay; conditions: Bos taurus
Quadruplex DNA [20] = experiment: Binding affinity to c-Kit G-quadruplex DNA (unknown origin) assessed as hyperchromicity at 15 uM after 5 mins by UV-Visible absorbance titration method; type: nucleic-acid assay
Quadruplex DNA [21] = experiment: Binding affinity to human telomeric G-quadruplex DNA assessed as hyperchromicity at 15 uM after 5 mins in presence of potassium ion by UV-Visible absorbance titration method; type: nucleic-acid assay
Quadruplex DNA [22] = experiment: Binding affinity to c-Kit G-quadruplex DNA (unknown origin) assessed as red shift at 15 uM after 5 mins by UV-Visible absorbance titration method; type: nucleic-acid assay
Quadruplex DNA [23] = experiment: Binding affinity to human telomeric G-quadruplex DNA assessed as red shift at 15 uM after 5 mins in presence of potassium ion by UV-Visible absorbance titration method; type: nucleic-acid assay
Quadruplex DNA [24] = experiment: Binding affinity to human telomeric G-quadruplex DNA assessed as red shift at 15 uM after 5 mins in presence of sodium ion by UV-Visible absorbance titration method; type: nucleic-acid assay
Calf thymus DNA [25] = experiment: Binding affinity to calf thymus DNA assessed as absorption maximum at 5 uM after 5 mins by fluorescence titration method (reference value: 405 nanometer); type: nucleic-acid assay; conditions: Bos taurus
Quadruplex DNA [26] = experiment: Binding affinity to c-Kit G-quadruplex DNA (unknown origin) assessed as absorption maximum at 5 uM after 5 mins by fluorescence titration method (reference value: 405 nanometer); type: nucleic-acid assay
dsDNA [27] = experiment: Binding affinity to 26-mer duplex DNA (unknown origin) assessed as emission maximum at 5 uM after 5 mins by fluorescence titration method (reference value: 559 nanometer); type: nucleic-acid assay
Quadruplex DNA [28] = experiment: Binding affinity to c-Kit G-quadruplex DNA (unknown origin) assessed as emission maximum at 5 uM after 5 mins by fluorescence titration method (reference value: 559 nanometer); type: nucleic-acid assay
Quadruplex DNA [29] = experiment: Binding affinity to human telomeric G-quadruplex DNA assessed as emission maximum at 5 uM after 5 mins in presence of sodium ion by fluorescence titration method (reference value: 559 nanometer); type: nucleic-acid assay
Quadruplex DNA [30] = experiment: Binding affinity to Bcl2 G-quadruplex DNA (unknown origin) assessed as compound fluorescence life time at 5 uM after 5 mins by fluorescence titration method (reference value: 3.626 nanoseconds); type: nucleic-acid assay
Quadruplex DNA [31] = experiment: Binding affinity to c-Myc G-quadruplex DNA (unknown origin) assessed as compound fluorescence life time at 5 uM after 5 mins by fluorescence titration method (reference value: 3.626 nanoseconds); type: nucleic-acid assay
Quadruplex DNA [32] = experiment: Binding affinity to c-Myc G-quadruplex DNA (unknown origin) assessed as enhanced fluorescence time at 5 uM after 5 mins by fluorescence titration assay relative to control; type: nucleic-acid assay
Quadruplex DNA [33] = experiment: Binding affinity to c-Kit G-quadruplex DNA (unknown origin) assessed as enhanced fluorescence ratio at 5 uM after 5 mins by fluorescence titration assay relative to control; type: nucleic-acid assay
Quadruplex DNA [34] = experiment: Binding affinity to Bcl2 G-quadruplex DNA (unknown origin) assessed as enhanced fluorescence ratio at 5 uM after 5 mins by fluorescence titration assay relative to control; type: nucleic-acid assay
Quadruplex DNA [35] = experiment: Binding affinity to human telomeric G-quadruplex DNA assessed as enhanced fluorescence ratio at 5 uM after 5 mins in presence of potassium ion by fluorescence titration assay relative to control; type: nucleic-acid assay
dsDNA [36] = experiment: Binding affinity to 26-mer duplex DNA (unknown origin) assessed as enhanced fluorescence ratio at 5 uM after 5 mins in presence of sodium ion by fluorescence titration assay relative to control; type: nucleic-acid assay
HepG2 [37] = experiment: Induction of morphological changes in human HepG2 cells assessed as cellular clumping at 10 uM after 24 hrs; type: functional, cell-based
HepG2 [38] = experiment: Induction of morphological changes in human HepG2 cells assessed as debris formation at 10 uM after 24 hrs; type: functional, cell-based
[39] = Drug uptake in fixed human HepG2 cell nucleus at 10 uM after 2.5 hrs by confocal microscopic method; type: ADME, subcellular; conditions: hepg2, 2.5 h

Activity (dsDNA [1]): 24.6%
Activity (Quadruplex DNA [2]): 55.1%
Activity (Quadruplex DNA [3]): 52.6%
Activity (Quadruplex DNA [4]): 41.1%
Activity (Quadruplex DNA [5]): 47 nm
Activity (Quadruplex DNA [6]): 53 nm
Activity (Quadruplex DNA [7]): 21 nm
Activity (Quadruplex DNA [8]): 24 nm
Activity (Calf thymus DNA [9]): 477 nm
Activity (dsDNA [10]): 470 nm
Activity (Quadruplex DNA [11]): 493 nm
Activity (Quadruplex DNA [12]): 500 nm
Activity (Quadruplex DNA [13]): 477 nm
Activity (Quadruplex DNA [14]): 581 nm
Activity (Quadruplex DNA [15]): 579 nm
Activity (Quadruplex DNA [16]): 578 nm
Drug uptake [17]: Not Active
Drug uptake [18]: Active
Structure (SMILES): CCn1c2ccccc2c2cc(/C=C/c3sc4ccccc4[n+]3CC)ccc21.[I-]

Activity (Calf thymus DNA [19]): 39.4%
Activity (Quadruplex DNA [20]): 39.9%
Activity (Quadruplex DNA [21]): 41.2%
Activity (Quadruplex DNA [22]): 27 nm
Activity (Quadruplex DNA [23]): 23 nm
Activity (Quadruplex DNA [24]): 17 nm
Activity (Calf thymus DNA [25]): 428 nm
Activity (Quadruplex DNA [26]): 432 nm
Activity (dsDNA [27]): 541 nm
Activity (Quadruplex DNA [28]): 550 nm
Activity (Quadruplex DNA [29]): 545 nm
Time (Quadruplex DNA [30]): 6.55 nanoseconds
Time (Quadruplex DNA [31]): 4.12 nanoseconds
fold change (FC) (Quadruplex DNA [32]): 11.2 to 20.6
Ratio (Quadruplex DNA [33]): > 6
Ratio (Quadruplex DNA [34]): > 6
Ratio (Quadruplex DNA [35]): > 6
Ratio (dsDNA [36]): > 6
Drug uptake [39]: Active
Structure (SMILES): CCn1c2ccccc2c2cc(/C=C(\C#N)c3ccc[n+](C)c3)ccc21.[I-]
Activity (HepG2 [37]): Active
Activity (HepG2 [38]): Active
